Peptide text beside a SMILES is read from it. * marks the point of attachment. FITC = O=C1OC2(c3ccc(O)cc3Oc3cc(O)ccc32)c2ccc(NC(=S)*)cc21
Legend:
mImpα1ΔIBB [1] = biological target: T1, mImpα1ΔIBB (Mus musculus, UniProt P52293); experiment: Fluorescence polarization, direct binding of FITC-labeled pol β NLS peptide; parameters: species or system murine; settings: abstract, peptide corresponding to pol β residues 2–13
T1 construct: His; made in house
Excerpt: The fluorescein-labeled pol β NLS peptide: S^3[…]^14-Lys(FITC), used for fluorescence polarization assays, was obtained from Genscript at a purity level of > 90%. Methyl methanesulfonate (MMS) was from Sigma-Aldrich. Following a strategy used previously ([61]), we studied a pol β complex with a double-hairpin that forms a one-nucleotide gapped DNA substrate with the following sequence: 5΄-^[…]-3΄ (underlined nucleotide is in the gap). The oligonucleotide was from Oligos Etc., Wilsonville, OR, USA. The non-hydrolyzable deoxynucleoside triphosphate 2΄-deoxyadenosine-5΄-[(α,β)-methyleno]triphosphate (dAPCPP) was obtained from Jena Bioscience.
His-tagged mImpα1 with the Importin β binding domain (IBB) deleted (mImpα1ΔIBB) and its major pocket variant (mImpα1ΔIBB[W184R/W231R]) were prepared as described previously ([56]). […] Protein concentrations were determined by the Edelhoch procedure ([63]).
(§1) Apparent peptide dissociation constants were determined based on fluorescence polarization measurements using the fluorescein-labeled pol β NLS peptide as previously described ([56]). The binding constants for the interaction of pol β lyase domain with the Importin α constructs were determined by displacement of the FITC-labeled NLS peptide using a competition assay as previously described ([56]).

hImpα5ΔIBB [2] = biological target: T2, hImpα5ΔIBB (Homo sapiens, UniProt P52294); experiment: Analytical gel filtration of lyase domain / hImpα5ΔIBB mixtures; assay type: binding; settings: 2-fold excess lyase domain, Superdex 200 10/300 GL, 1 ml/min, 20 mM HEPES, 125 mM NaCl, 5 mM DTT, 1 mM EDTA, pH 7.4
T2 construct: human Importin α5, corresponding to residues 66–512, (hImpα5ΔIBB); His (C)
T2 sequence (P52294 66-512, stated change not applied): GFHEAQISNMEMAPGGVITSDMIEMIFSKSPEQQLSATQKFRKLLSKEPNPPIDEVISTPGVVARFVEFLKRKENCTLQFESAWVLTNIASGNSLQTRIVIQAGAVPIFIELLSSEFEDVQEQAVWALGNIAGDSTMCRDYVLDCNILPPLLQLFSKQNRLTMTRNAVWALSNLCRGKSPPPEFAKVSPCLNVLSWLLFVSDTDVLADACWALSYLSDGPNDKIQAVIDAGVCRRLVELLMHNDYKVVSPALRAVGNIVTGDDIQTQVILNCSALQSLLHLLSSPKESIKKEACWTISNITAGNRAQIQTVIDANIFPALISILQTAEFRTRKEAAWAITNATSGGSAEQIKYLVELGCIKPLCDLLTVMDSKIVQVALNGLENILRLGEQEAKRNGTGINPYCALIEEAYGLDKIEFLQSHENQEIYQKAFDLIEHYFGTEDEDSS
Protocol: (§2) For an initial assessment of binding, a sample of mImpα1ΔIBB was mixed with a 2.8-fold excess of pol β lyase domain and the sample was eluted on a HiLoad 26/60 Superdex 200 column (GE Healthcare) with a buffer containing 20 mM Tris-HCl, pH 7.8, 125 mM NaCl, 2 mM DTT, 1 mM ethylenediaminetetraacetic acid. For the analytical gel filtration experiments, hImpα5ΔIBB was mixed with 2-fold excess of wild-type or the NLS variant pol β(R4S,K5S) lyase domain and the samples were eluted on a Superdex 200 10/300 GL column (GE Healthcare) with a buffer containing 20 mM HEPES, 125 mM NaCl, 5mM DTT, 1mM ethylenediaminetetraacetic acid, pH 7.4.
Supplementary Figure S4. Interaction of the pol β lyase domain with Impα5. Analytical gel filtration experiments performed on mixtures of hImpa5DIBB and either wild-type or pol b(R4S,K5S) lyase domain.
For these experiments, hImpa5DIBB was mixed with 2-fold excess of wild-type or the NLS variant pol b(R4S,K5S) lyase domain and the samples were eluted at a flow rate of 1 ml/min on a Superdex 200 10/300 GL column (GE Healthcare) with a buffer containing 20 mM HEPES, 125 mM NaCl, 5mM DTT, […]
than Impa5DIBB alone; C) a mixture of Impa5DIBB with pol b(R4S,K5S) lyase domain elutes as two […]

mImpα1ΔIBB [3] = experiment: Gel filtration of lyase domain / mImpα1ΔIBB mixture; assay type: binding, murine; settings: 2.8-fold excess lyase domain, HiLoad 26/60 Superdex 200, 20 mM Tris-HCl pH 7.8, 125 mM NaCl, 2 mM DTT, 1 mM EDTA
Protocol: as §2
Supplementary Figure S2. Interaction of pol β lyase domain with mImpα1DIBB. A sample of mImpα1DIBB was mixed with 2.8-fold excess of pol b lyase domain and the sample was eluted on a HiLoad 26/60 Superdex 200 column (GE Healthcare) with a buffer containing 20 mM Tris-HCL, pH 7.8, […]
125 mM NaCl, 2 mM DTT, 1 mM EDTA. […]
which contain both proteins while the excess pol b lyase domain elutes in fractions 41-43.
(1 picture or pasted object on this page, not shown here)

hImpα5ΔIBB [4] = biological target: T2, hImpα5ΔIBB; experiment: Ligand displacement (competition) of FITC-labeled NLS peptide by lyase domain; assay type: binding; settings: relative to value with mImpα1ΔIBB
Protocol: His-tagged mImpα1 with the Importin β binding domain (IBB) deleted (mImpα1ΔIBB) and its major pocket variant (mImpα1ΔIBB[W184R/W231R]) were prepared as described previously ([56]). The minor binding pocket double mutant (mImpα1ΔIBB[W357R/W399R]) was created using the QuikChange kit (Agilent). C-terminal His-tagged human Importin α5, corresponding to residues 66–512, (hImpα5ΔIBB) was purchased from Genscript and cloned into the pET30 expression vector. All clones were sequence verified. mImpα1ΔIBB[W357R/W399R] and hImpα5ΔIBB were expressed and purified by the IMAC and gel filtration protocol previously described ([56]). Protein concentrations were determined by the Edelhoch procedure ([63]).
as §1
Figure 3. Binding of the pol β lyase domain to mImpα1ΔIBB and hImpα5ΔIBB. […] The initial fluorescence polarization value corresponds to the fraction of NLS peptide complexed with Impα, so that 100 would correspond to a fully complexed peptide. […]

mImpα1ΔIBB [5] = experiment: 1H-15N HSQC NMR binding study; parameters: species or system murine; settings: 130 μM protein, equal concentration mImpα1ΔIBB; 50 mM Tris-d11 pH 7.6, 150 mM KCl; 25°C
Protocol: For the mImpα1ΔIBB binding experiments, the samples contained 0.13 mM U-[^2H,^15N]pol β and 0.13 mM mImpα1ΔIBB in a buffer consisting of 50 mM Tris-d11 (pH 7.6), 150 mM KCl, 1 mM CDTA, 1 mM dithiothreitol (DTT), 0.1 mM AEBSF, 0.04% NaN3 and 50 μM DSS as an internal chemical shift standard, with 10% D2O for ^1H-^15N HSQC experiments and 100% D2O for ^1H-^13C HSQC experiments. For studies of the effects of the R4S,K5S mutation on pol β structure and function, the [methyl-^13C]methionine-labeled pol β samples contained 0.1 mM pol β or the NLS-variant in the above 100% D2O buffer along with 0.11 mM of a 1-nucleotide gapped double-hairpin DNA substrate and 0.14 mM of the non-hydrolyzable nucleoside triphosphate substrate dAPCPP. Nuclear magnetic resonance (NMR) experiments were performed at 25°C on a Varian UNITY INOVA 600 or 800 MHz NMR spectrometer, using a 5 mm Varian ^1H{^13C,^15N} triple-resonance room-temperature or Cold Probe, equipped with actively shielded Z-gradients. The ^1H-^13C HSQC spectra were acquired using Varian's gChsqc sequence. The spectra were processed using NMRPipe version 2.1 ([64]) and analyzed using NMRView version 5.0.4 ([65]). All spectra were processed using squared cosine bell apodization functions in all dimensions and forward-backward linear prediction in the indirect dimension ([66]).
Figure 1. […]

CC(C)C[C@H](NC(=O)[C@@H](NC(=O)[C@H](CCC(=O)O)NC(=O)[C@H](CCC(N)=O)NC(=O)[C@@H]1CCCN1C(=O)[C@H](C)NC(=O)[C@H](CCCCN)NC(=O)[C@H](CCCNC(=N)N)NC(=O)[C@H](CCCCN)NC(=O)[C@@H](N)CO)[C@@H](C)O)C(=O)N[C@@H](CC(N)=O)C(=O)NCC(=O)NCC(=O)N[C@@H](CCCCNC(=S)Nc1ccc2c(c1)C(=O)OC21c2ccc(O)cc2Oc2cc(O)ccc21)C(=O)O (H-SKRKAPQETLNGGK(FITC)-OH)
Kd (in words) (mImpα1ΔIBB [1]): low micromolar Kd

Pol β lyase domain: N-terminal lyase domain of pol β (residues 2–87)
complex formation by analytical gel filtration (hImpα5ΔIBB [2]; listed as pol b lyase domain): a complex of Impa5DIBB with pol b lyase domain elutes earlier
complex formation by analytical gel filtration (hImpα5ΔIBB [2]; listed as wild-type lyase domain): does elute as a complex
complex formation by gel filtration (mImpα1ΔIBB [3]): indicated an interaction between the two proteins
complex formation by gel filtration (mImpα1ΔIBB [3]; listed as pol b lyase domain): the complex elutes in fractions 28-32
increase in affinity, hImpα5ΔIBB vs mImpα1ΔIBB (hImpα5ΔIBB [4]): 8 fold
effect of mImpα1ΔIBB on 1H-15N HSQC resonances (mImpα1ΔIBB [5]): broadened lyase domain amide resonances

— PMC5389473, “DNA polymerase β contains a functional nuclear localization signal at its N-terminus” (Nucleic Acids Research, 2016)
